Laboratory results taken from the NIST ThermoML archive (doi:10.1016/j.jct.2017.07.034).
Numbers after ± are expanded uncertainties.

Assays:
[1] = mn = molality of the nth substance listed, in mol/kg; conditions: 99.6 kPa, Liquid, Vibrating tube method
[2] = 99.6 kPa, Liquid, Vibrating tube method

CCN1C(=O)N(C)[C@@H]2[C@H]1N(C)C(=O)N2CC + O
mass density [kg/m3], [1]
Conditions | m1 = 0.01976 | m1 = 0.04272 | m1 = 0.06009 | m1 = 0.07765 | m1 = 0.1094 | m1 = 0.136 | m1 = 0.155 | m1 = 0.1749 | m1 = 0.1935
278.15 K | 1000.71 ± 0.11 | 1001.58 ± 0.11 | 1002.23 ± 0.11 | 1002.88 ± 0.11 | 1004.07 ± 0.11 | 1005.05 ± 0.11 | 1005.75 ± 0.11 | 1006.48 ± 0.11 | 1007.16 ± 0.11
288.15 K | 999.821 ± 0.11 | 1000.65 ± 0.11 | 1001.28 ± 0.11 | 1001.91 ± 0.11 | 1003.04 ± 0.11 | 1003.98 ± 0.11 | 1004.64 ± 0.11 | 1005.34 ± 0.11 | 1005.98 ± 0.11
298.15 K | 997.745 ± 0.11 | 998.551 ± 0.11 | 999.157 ± 0.11 | 999.764 ± 0.11 | 1000.85 ± 0.11 | 1001.76 ± 0.11 | 1002.4 ± 0.11 | 1003.07 ± 0.11 | 1003.68 ± 0.11
308.15 K | 994.713 ± 0.11 | 995.494 ± 0.11 | 996.08 ± 0.11 | 996.672 ± 0.11 | 997.724 ± 0.11 | 998.597 ± 0.11 | 999.219 ± 0.11 | 999.861 ± 0.11 | 1000.46 ± 0.11
318.15 K | 990.876 ± 0.11 | 991.636 ± 0.11 | 992.207 ± 0.11 | 992.779 ± 0.11 | 993.803 ± 0.11 | 994.654 ± 0.11 | 995.256 ± 0.11 | 995.879 ± 0.11 | 996.461 ± 0.11

O [water] + CCN1C(=O)N(C)[C@@H]2[C@H]1N(C)C(=O)N2CC
Conditions | mass density [kg/m3]
[1], 278.15 K, m2 = 0 | 999.964 ± 0.11

[2H]O[2H] [water-d2]
[2]
Conditions | mass density [kg/m3]
278.15 K | 1105.52 ± 0.12
288.15 K | 1105.78 ± 0.12
298.15 K | 1104.34 ± 0.12
308.15 K | 1101.65 ± 0.12
318.15 K | 1097.87 ± 0.12

CCN1C(=O)N(C)[C@@H]2[C@H]1N(C)C(=O)N2CC + [2H]O[2H]
mass density [kg/m3], [1]
Conditions | m1 = 0.02067 | m1 = 0.03855 | m1 = 0.06093 | m1 = 0.08301 | m1 = 0.09921 | m1 = 0.1206 | m1 = 0.1402 | m1 = 0.159 | m1 = 0.1743
278.15 K | 1105.97 ± 0.12 | 1106.36 ± 0.12 | 1106.84 ± 0.12 | 1107.32 ± 0.12 | 1107.67 ± 0.12 | 1108.14 ± 0.12 | 1108.56 ± 0.12 | 1108.97 ± 0.12 | 1109.3 ± 0.12
288.15 K | 1106.17 ± 0.12 | 1106.51 ± 0.12 | 1106.94 ± 0.12 | 1107.36 ± 0.12 | 1107.67 ± 0.12 | 1108.07 ± 0.12 | 1108.44 ± 0.12 | 1108.8 ± 0.12 | 1109.08 ± 0.12
298.15 K | 1104.7 ± 0.12 | 1105 ± 0.12 | 1105.38 ± 0.12 | 1105.75 ± 0.12 | 1106.03 ± 0.12 | 1106.39 ± 0.12 | 1106.71 ± 0.12 | 1107.03 ± 0.12 | 1107.28 ± 0.12
308.15 K | 1101.97 ± 0.12 | 1102.24 ± 0.12 | 1102.58 ± 0.12 | 1102.91 ± 0.12 | 1103.16 ± 0.12 | 1103.47 ± 0.12 | 1103.76 ± 0.12 | 1104.04 ± 0.12 | 1104.28 ± 0.12
318.15 K | 1098.15 ± 0.12 | 1098.4 ± 0.12 | 1098.71 ± 0.12 | 1099.01 ± 0.12 | 1099.23 ± 0.12 | 1099.52 ± 0.12 | 1099.78 ± 0.12 | 1100.04 ± 0.12 | 1100.24 ± 0.12

[2H]O[2H] [water-d2] + CCN1C(=O)N(C)[C@@H]2[C@H]1N(C)C(=O)N2CC
[1], m2 = 0
Conditions | mass density [kg/m3]
278.15 K | 1105.52 ± 0.12
288.15 K | 1105.78 ± 0.12
298.15 K | 1104.34 ± 0.12
308.15 K | 1101.65 ± 0.12
318.15 K | 1097.87 ± 0.12
